From patent US11976057B2, “MrgX2 antagonists” (GlaxoSmithKline Intellectual Property Development Limited, priority 2020, dated 2024)

target: T1, human MRGPRX2 (Homo sapiens, UniProt Q96LB1); test: Ca2+ mobilization assay (FLIPR TETRA): inhibition of Cortistatin-14 mediated MRGPRX2 activation
T1 sequence (Q96LB1 1-330): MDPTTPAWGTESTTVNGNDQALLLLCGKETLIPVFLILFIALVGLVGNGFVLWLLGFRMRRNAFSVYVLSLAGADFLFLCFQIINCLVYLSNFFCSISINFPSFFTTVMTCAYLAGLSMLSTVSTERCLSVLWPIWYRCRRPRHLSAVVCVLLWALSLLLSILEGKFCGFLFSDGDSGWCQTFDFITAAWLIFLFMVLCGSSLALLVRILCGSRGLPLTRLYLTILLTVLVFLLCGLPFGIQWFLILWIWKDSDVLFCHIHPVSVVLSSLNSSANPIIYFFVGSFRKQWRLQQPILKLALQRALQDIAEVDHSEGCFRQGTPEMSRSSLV

SMILES | IC50 [nM]
CC(C(=O)Nc1ccc(OC2CCC2)cn1)N1CCC(F)(F)[C@@H](c2ccc(=O)[nH]c2)C1 (stereo partly drawn) [Example 78, N-(5-cyclobutoxy-pyridin-2-yl)-2-((S)-4,4-difluoro-3-(6-oxo-1,6-dihydropyridin-3-yl)piperidin-1-yl)propanamide] | 100 to 3160
C[C@@H](C(=O)Nc1cnc(Oc2ccccc2)cn1)N1CCC(F)(F)[C@@H](c2ccc(=O)[nH]c2)C1 [Example 60, (S)-2-((S)-4,4-difluoro-3-(6-oxo-1,6-dihydropyridin-3-yl)piperidin-1-yl)-N-(5-phenoxypyrazin-2-yl)propanamide] | 10 to 100
C[C@@H](C(=O)Nc1ccc(Oc2ccc(F)cc2)cn1)N1CCC(F)(F)[C@@H](c2ccc(=O)[nH]c2)C1 [Example 5, (S)-2-((S)-4,4-difluoro-3-(6-oxo-1,6-dihydropyridin-3-yl)piperidin-1-yl)-N-(5-(4-fluorophenoxy)pyridin-2-yl)propanamide] | ≤ 10
C[C@@H](C(=O)Nc1ccc(/C=C/C2CC2)cn1)N1CCC(F)(F)[C@@H](c2ccc(=O)[nH]c2)C1 [Example 10] | 10 to 100
CC(C(=O)Nc1ccc(Oc2ncc(F)cc2Cl)cn1)N1CCC(F)(F)[C@@H](c2ccc(=O)[nH]c2)C1 (stereo partly drawn) [Example 90, N-(5-((3-chloro-5-fluoropyridin-2-yl)oxy)pyridin-2-yl)-2-((S)-4,4-difluoro-3-(6-oxo-1,6-dihydropyridin-3-yl)piperidin-1-yl)propanamide] | ≤ 10
C[C@@H](C(=O)Nc1ccc(OC2CCC2)nn1)N1CCC(F)(F)[C@@H](c2ccc(=O)[nH]c2)C1 [Example 100, (S)-N-(6-cyclobutoxy-pyridazin-3-yl)-2-((S)-4,4-difluoro-3-(6-oxo-1,6-dihydropyridin-3-yl)piperidin-1-yl)propanamide] | 100 to 3160
CC(C(=O)Nc1ccc(C2CCCCC2)cn1)N1CCC(F)(F)[C@@H](c2ccc(=O)[nH]c2)C1 (stereo partly drawn) [Example 42, N-(5-cyclohexyl-pyridin-2-yl)-2-((S)-4,4-difluoro-3-(6-oxo-1,6-dihydropyridin-3-yl)piperidin-1-yl)propanamide] | 100 to 3160
C[C@@H](C(=O)Nc1ccc(CC2CCC2)cn1)N1CCC(F)(F)[C@@H](c2ccc(=O)[nH]c2)C1 [Example 84, (S)-N-(5-(cyclobutyl-methyl)pyridin-2-yl)-2-((S)-4,4-difluoro-3-(6-oxo-1,6-dihydropyridin-3-yl)piperidin-1-yl)propanamide] | 10 to 100
CC(C(=O)Nc1ccc(OC2CC3(CCC3)C2)nn1)N1CCC(F)(F)[C@@H](c2ccc(=O)[nH]c2)C1 (stereo partly drawn) [Example 93, 2-((S)-4,4-difluoro-3-(6-oxo-1,6-dihydropyridin-3-yl)piperidin-1-yl)-N-(6-(spiro[3.3]heptan-2-yloxy)pyridazin-3-yl)propanamide] | 100 to 3160
C[C@@H](C(=O)Nc1ccc2c(n1)CN(C1CC1)C2)N1CCC(F)(F)[C@@H](c2ccc(=O)[nH]c2)C1 [Example 32, (S)-N-(6-cyclopropyl-6,7-dihydro-5H-pyrrolo[3,4-b]pyridin-2-yl)-2-((S)-4,4-difluoro-3-(6-oxo-1,6-dihydropyridin-3-yl)piperidin-1-yl)propanamide] | 100 to 3160
CC(C(=O)Nc1ccc(OCC2CCCC2)cn1)N1CCC(F)(F)[C@@H](c2ccc(=O)[nH]c2)C1 (stereo partly drawn) [Example 47, N-(5-(cyclopentyl-methoxy)pyridin-2-yl)-2-((S)-4,4-difluoro-3-(6-oxo-1,6-dihydropyridin-3-yl)piperidin-1-yl)propanamide] | 100 to 3160
C[C@@H](C(=O)Nc1ccc(C(F)(F)c2ccc(F)cc2)cn1)N1CCC(F)(F)[C@@H](c2cc[n+]([O-])cc2)C1 [Example 127, 4-((S)-1-((S)-1-((5-(difluoro(4-fluorophenyl)methyl)pyridin-2-yl)amino)-1-oxopropan-2-yl)-4,4-difluoropiperidin-3-yl)pyridine 1-oxide] | 10 to 100
C[C@@H](C(=O)Nc1ccc(Oc2cc(F)c(F)cc2F)cn1)N1CCC(F)(F)[C@@H](c2cc[n+]([O-])cc2)C1 [Example 124, 4-((S)-4,4-difluoro-1-((S)-1-oxo-1-((5-(2,4,5-trifluorophenoxy)pyridin-2-yl)amino)propan-2-yl)piperidin-3-yl)pyridine 1-oxide] | ≤ 10
Cc1nc(-c2ccc(Oc3ccc(NC(=O)[C@H](C)N4CCC(F)(F)[C@@H](c5ccc(=O)[nH]c5)C4)nc3)c(F)c2)cs1 [Example 99, (S)-2-((S)-4,4-difluoro-3-(6-oxo-1,6-dihydropyridin-3-yl)piperidin-1-yl)-N-(5-(2-fluoro-4-(2-methylthiazol-4-yl)phenoxy)pyridin-2-yl)propanamide] | 10 to 100
CC(C(=O)Nc1ccc(Oc2ccccc2C#N)nn1)N1CCC(F)(F)[C@@H](c2ccc(=O)[nH]c2)C1 (stereo partly drawn) [Example 62, N-(6-(2-cyanophenoxy)pyridazin-3-yl)-2-((S)-4,4-difluoro-3-(6-oxo-1,6-dihydropyridin-3-yl)piperidin-1-yl)propanamide] | 3160 to 31600
C[C@@H](C(=O)Nc1ccc(Oc2cc(F)c(F)cc2F)cn1)N1CCC(F)(F)[C@@H](c2ccc(=O)[nH]c2)C1 [Example 97, (S)-2-((S)-4,4-difluoro-3-(6-oxo-1,6-dihydropyridin-3-yl)piperidin-1-yl)-N-(5-(2,4,5-trifluorophenoxy)pyridin-2-yl)propanamide] | ≤ 10

Other lines, results leading:

IC50 [nM] | SMILES
100 to 3160 | C[C@@H](C(=O)Nc1ccc(Cl)cn1)N1CCC[C@@H](c2c[nH]c(=O)c(N)n2)C1 (single isomer, unassigned) [Example 174]
10 to 100 | C[C@@H](C(=O)Nc1ccc(OCC2CC2)cn1)N1CCC(F)(F)[C@@H](c2c[nH]c(=O)c(C(C)(C)O)c2)C1 [Example 152, (S)—N-(5-(cyclopropylmethoxy)pyridin-2-yl)-2-((S)-4,4-difluoro-3-(5-(2-hydroxypropan-2-yl)-6-oxo-1,6-dihydropyridin-3-yl)piperidin-1-yl)propanamide]
3160 to 31600 | C[C@@H](C(=O)Nc1ccc(Cl)cn1)N1CCC[C@@H](c2c[nH]c(=O)c(CO)c2)C1 (single isomer, unassigned) [Example 177]
100 to 3160 | Cc1cc(C2CN([C@@H](C)C(=O)Nc3ccc(F)cn3)CCC2(F)F)cc[n+]1[O-] (stereo partly drawn) [Example 217, 4-(4,4-difluoro-1l-((S)-1-((5-fluoropyridin-2-yl)amino)-1-oxopropan-2-yl)piperidin-3-yl)-2-methylpyridine 1-oxide]
100 to 3160 | C[C@@H](C(=O)Nc1ccc(C2CC2)cn1)N1CCC(F)(F)[C@@H](c2ccc(=O)[nH]n2)C1 [Example 147]
10 to 100 | C[C@@H](C(=O)Nc1cnc(Oc2ccc(F)cc2F)cn1)N1CCC[C@@H](c2cc[n+]([O-])cc2)C1 [Example 181, 4-((S)-1-((S)-1-((5-(2,4-difluorophenoxy)pyrazin-2-yl)amino)-1-oxopropan-2-yl)piperidin-3-yl)pyridine 1-oxide]
≤ 10 | C[C@@H](C(=O)Nc1ccc(F)cn1)N1CCC(F)(F)[C@@H](c2ccc(=O)n(CC(F)F)c2)C1 [Example 193]
100 to 3160 | C[C@@H](C(=O)Nc1ccc(OCC2CC2)nn1)N1CCC(F)(F)[C@@H](c2c[nH]c(=O)c(CN(C)C)c2)C1 [Example 231]
≤ 10 | C[C@@H](C(=O)Nc1ccc(Oc2ccc(F)c(F)c2)cn1)N1CCC(F)(F)[C@@H](c2ccc(=O)[nH]c2)C1 [Example 268, (S)-2-((S)-4,4-difluoro-3-(6-oxo-1,6-dihydropyridin-3-yl)piperidin-1-yl)-N-(5-(3,4-difluorophenoxy)pyridin-2-yl)propanamide]
≤ 10 | C[C@@H](C(=O)Nc1ccc(Oc2ccc(F)cc2)cn1)N1CCC(F)(F)[C@@H](c2c[nH]c(=O)c([C@H](N)C(F)(F)F)c2)C1 (single isomer, unassigned) [Example 233]
≤ 10 | COc1cc(F)ccc1Oc1ccc(NC(=O)[C@H](C)N2CCC(F)(F)[C@@H](c3ccc(=O)[nH]c3)C2)nc1 [Example 269]
≤ 10 | C[C@@H](C(=O)Nc1ccc(Oc2ccc(F)cc2F)cn1)N1CCC(F)(F)[C@@H](c2c[nH]c(=O)c(CS(C)(=O)=O)c2)C1 [Example 216, (S)-2-((S)-4,4-difluoro-3-(5-((methylsulfonyl)methyl)-6-oxo-1,6-dihydropyridin-3-yl)piperidin-1-yl)-N-(5-(2,4-difluorophenoxy)pyridin-2-yl)propanamide]
≤ 10 | C[C@@H](C(=O)Nc1ccc(Oc2ccc(F)cc2)cn1)N1CCC(F)(F)[C@@H](c2c[nH]c(=O)c(CN)c2)C1 [Example 204, (S)-2-((S)-3-(5-(aminomethyl)-6-oxo-1,6-dihydropyridin-3-yl)-4,4-difluoropiperidin-1-yl)-N-(5-(4-fluorophenoxy)pyridin-2-yl)propanamide]
10 to 100 | C[C@@H](C(=O)Nc1ccc(OCC2CC2)nn1)N1CCC(F)(F)[C@@H](c2c[nH]c(=O)cn2)C1 [Example 134, (S)-N-(6-(cyclopropylmethoxy)pyridazin-3-yl)-2-((R)-4,4-difluoro-3-(5-oxo-4,5-dihydropyrazin-2-yl)piperidin-1-yl)propanamide]
≤ 10 | C[C@@H](C(=O)Nc1ccc(Oc2ccc(F)cc2F)cn1)N1CCC(F)(F)[C@@H](c2c[nH]c(=O)c(CN3CCOCC3)c2)C1 [Example 227, (S)-2-((S)-4,4-difluoro-3-(5-(morpholinomethyl)-6-oxo-1,6-dihydropyridin-3-yl)piperidin-1-yl)-N-(5-(2,4-difluorophenoxy)pyridin-2-yl)propanamide]
10 to 100 | CC(C(=O)Nc1ccc(Oc2ccc(F)cc2)cn1)N1CCC(F)(F)C(c2ccc(=O)n(CCS(C)(=O)=O)c2)C1 (centres unmarked) [Example 192, 2-(4,4-difluoro-3-(1-(2-(methylsulfonyl)ethyl)-6-oxo-1,6-dihydropyridin-3-yl)piperidin-1-yl)-N-(5-(4-fluorophenoxy)pyridin-2-yl)propanamide]
